Reference: ChEMBL document CHEMBL5233238, “Research progress on sirtuins family members and cell senescence” (2020)

Key:
Format in all cases: functional
Caenorhabditis elegans [1] = test: Regulation of metabolic activity in […] assessed as increasing in average life span at 25 mol/L relative to control
Caenorhabditis elegans [2] = test: Regulation of metabolic activity in […] assessed as increasing in average life span at 50 mol/L relative to control
Caenorhabditis elegans [3] = test: Regulation of metabolic activity in […] assessed as increasing in average life span at 100 mol/L relative to control

CN(C)C(=N)NC(=N)N [METFORMIN]
Activity (Caenorhabditis elegans [1]): 18% | Activity (Caenorhabditis elegans [2]): 36% | Activity (Caenorhabditis elegans [3]): 3%
